Measured values taken from ChEMBL document CHEMBL3779788, “Facile synthesis of 1,3-thiazolidin-4-ones as antitubercular agents” (Bioorg Med Chem Lett, 2016).
In brackets after ≈: the same amount, converted by molar mass.

Legend:
MCF7 = assay: (§1) Cytotoxicity against human MCF7 cells after 48 and 72 hrs by MTT assay; type: cell-based; settings: mcf7, 72 h
[1] = as §1; type: cell-based; settings: MCF7 cells
[2] = Cytotoxicity against human HCT116 cells at 3 ug/mL by MTT assay; type: cell-based, HCT-116; settings: read-out: INH
[3] = Cytotoxicity against human A549 cells at 30 ug/mL by MTT assay; type: cell-based; settings: read-out: INH
[4] = system: Mycobacterium bovis BCG str. ATCC 35743; assay: Antitubercular activity against dormant Mycobacterium bovis BCG ATCC 35743 assessed as growth inhibition at 30 ug/mL by NR assay; type: functional
[5] = Cytotoxicity against human A549 cells at 10 ug/mL by MTT assay; type: cell-based; settings: read-out: INH
[6] = Cytotoxicity against human HCT116 cells after 48 and 72 hrs by MTT assay; type: cell-based, HCT-116; settings: for GI50 at 72 h: HCT116 cells; for GI90: hct-116, 72 h
[7] = system: Mycobacterium tuberculosis; assay: Antitubercular activity against dormant Mycobacterium tuberculosis H37Ra assessed as growth inhibition at 30 ug/mL by XTT reduction menadione assay; type: functional; settings: read-out: GI
Escherichia coli = assay: Antibacterial activity against Escherichia coli after 18 hrs by broth dilution method; type: functional, organism-based
A549 = assay: (§2) Cytotoxicity against human A549 cells after 48 and 72 hrs by MTT assay; type: cell-based; settings: a549, 72 h
[8] = as §2; type: cell-based; settings: A549 cells
[9] = system: Mycobacterium tuberculosis; assay: Antitubercular activity against dormant Mycobacterium tuberculosis H37Ra assessed as growth inhibition at 3 ug/mL by XTT reduction menadione assay; type: functional; settings: read-out: GI
Pseudomonas = assay: Antibacterial activity against Pseudomonas after 18 hrs by broth dilution method; type: functional, organism-based
[10] = Cytotoxicity against human MCF7 cells at 30 ug/mL by MTT assay; type: cell-based; settings: read-out: INH
[11] = Cytotoxicity against human HCT116 cells at 10 ug/mL by MTT assay; type: cell-based, HCT-116; settings: read-out: INH
[12] = (§3) Antitubercular activity against dormant Mycobacterium bovis BCG ATCC 35743 by NR assay; type: functional, Mycobacterium bovis BCG str. ATCC 35743
[13] = system: Mycobacterium bovis BCG str. ATCC 35743; assay: as §3; type: functional
[14] = system: Mycobacterium tuberculosis; assay: Antitubercular activity against dormant Mycobacterium tuberculosis H37Ra assessed as growth inhibition at 10 ug/mL by XTT reduction menadione assay; type: functional; settings: read-out: GI
[15] = Cytotoxicity against human MCF7 cells at 3 ug/mL by MTT assay; type: cell-based; settings: read-out: INH
[16] = system: Mycobacterium bovis BCG str. ATCC 35743; assay: Antitubercular activity against dormant Mycobacterium bovis BCG ATCC 35743 assessed as growth inhibition at 3 ug/mL by NR assay; type: functional
[17] = Cytotoxicity against human A549 cells at 3 ug/mL by MTT assay; type: cell-based; settings: read-out: INH
[18] = system: Mycobacterium tuberculosis; assay: Antitubercular activity against dormant Mycobacterium tuberculosis H37Ra by XTT reduction menadione assay; type: functional, organism-based
Bacillus subtilis = assay: Antibacterial activity against Bacillus subtilis after 18 hrs by broth dilution method; type: functional, organism-based
[19] = Cytotoxicity against human MCF7 cells at 10 ug/mL by MTT assay; type: cell-based; settings: read-out: INH
[20] = Cytotoxicity against human HCT116 cells at 30 ug/mL by MTT assay; type: cell-based, HCT-116; settings: read-out: INH
Staphylococcus aureus = assay: Antibacterial activity against Staphylococcus aureus after 18 hrs by broth dilution method; type: functional, organism-based
[21] = system: Mycobacterium bovis BCG str. ATCC 35743; assay: Antitubercular activity against dormant Mycobacterium bovis BCG ATCC 35743 assessed as growth inhibition at 10 ug/mL by NR assay; type: functional

Structure (SMILES)	GI90 (MCF7) [µg/mL]	GI50 at 72 h [1] [µg/mL]	cytotoxicity at 3 ug/mL [2] [%]	cytotoxicity at 30 ug/mL [3] [%]	growth inhibition (GI) [4] [%]	cytotoxicity at 10 ug/mL [5] [%]	GI50 at 72 h [6] [µg/mL]	GI90 [6] [µg/mL]	inhibition of growth at 30 µg/mL [7] [%]	IC50 (Escherichia coli) [µg/mL]	MIC (Escherichia coli) [µg/mL]	GI90 (A549) [µg/mL]	GI50 at 72 h [8] [µg/mL]	inhibition of growth at 3 µg/mL [9] [%]	IC50 (Pseudomonas) [µg/mL]	MIC (Pseudomonas) [µg/mL]	cytotoxicity at 30 ug/mL [10] [%]	cytotoxicity at 10 ug/mL [11] [%]	IC50 [12] [µg/mL]	IC90 [13] [µg/mL]	other results
O=C1CSC(c2ccccc2)N1c1ccc(F)cc1 (stereo unspecified)	> 100	> 100	-5.4	11	31	0	> 100	> 100	70	> 30	> 30	> 100	> 100	7.5	> 30	> 30	7.5	5.3	> 30	> 30	inhibition of growth at 10 µg/mL [14]: 31.4%; cytotoxicity at 3 ug/mL [15]: -3.9%; growth inhibition (GI) [16]: 27.7%; cytotoxicity at 3 ug/mL [17]: -13.4%; IC50 [18]: 19.8 µg/mL (≈ 72.4 µM); IC90 [18]: > 30 µg/mL; IC50 (Bacillus subtilis): > 30 µg/mL; MIC (Bacillus subtilis): > 30 µg/mL; cytotoxicity at 10 ug/mL [19]: 0%; cytotoxicity at 30 ug/mL [20]: -6%; IC50 (Staphylococcus aureus): > 30 µg/mL; MIC (Staphylococcus aureus): > 30 µg/mL; growth inhibition (GI) [21]: 19.5%
O=C1CSC(c2ccccc2)N1c1ccccc1 (stereo unspecified)	> 100	> 100	3.3	0	80.7	0	> 100	> 100	34.5	> 30	> 30	> 100	> 100	5	> 30	> 30	31.7	3.2	20.7 (≈ 81.1 µM)	> 30	inhibition of growth at 10 µg/mL [14]: 31.7%; cytotoxicity at 3 ug/mL [15]: -4.2%; growth inhibition (GI) [16]: 14.2%; cytotoxicity at 3 ug/mL [17]: 0%; IC50 [18]: > 30 µg/mL; IC90 [18]: > 30 µg/mL; IC50 (Bacillus subtilis): > 30 µg/mL; MIC (Bacillus subtilis): > 30 µg/mL; cytotoxicity at 10 ug/mL [19]: 5.3%; cytotoxicity at 30 ug/mL [20]: 16.8%; IC50 (Staphylococcus aureus): > 30 µg/mL; MIC (Staphylococcus aureus): > 30 µg/mL; growth inhibition (GI) [21]: 15.4%
